One data set has as its system prostate cancer cells. Nature of the data set: TGF-β1-induced EMT proteins and gene expression, western blot and real-time PCR. Format: cell-based, human. How it is done: Cells were exposed to compound k as indicated concentrations or senexin A (10 μM) in the presence or absence of TGF-β1 (10 ng/mL) for 24 h, the proteins and mRNA levels of E-cadherin, N-cadherin, Snail, vimentin, α-SMA were determined by western blot (A) or real-time PCR (B). Results are shown as the mean±SEM from at least three independent experiments (**p<0.01, ***p<0.001 vs. control group; #p<0.05, ##p<0.01, and ###p<0.001 vs. TGF-β1 treatment group).
Total RNA was isolated from cells using TRIzol reagent (Invitrogen). […] Quantitative PCR was performed using TaqMan One Step RT-PCR mastermix (ABI) in a total reaction volume of 20 μL per reaction, consisting of 10 μL of SYBR green PCR master mix (Applied Biosystems), 5 pmol of each forward/reverse primer, and 2 μL of cDNA. […] The threshold cycle (Ct) in the exponential phase of amplification was detected, the relative mRNA expression level was determined by calculating the ΔΔCt values, and the fold change was expressed as 2^−ΔΔCt. […]
The cells were incubated in lysis buffer for 10 min at 4° C., scraped off, incubated on ice for an additional 10 min and then centrifuged at 17,000 g for 30 min at 4° C. […] Bound antibodies will be measured using an ECL reagent and exposed to a photographic film. […]

For the next data set, the system named is PC-3 cells. The data set can be described thus: PC-3 SCID mouse model. Format: in vivo, mice. Particulars: oral, 50 mg/kg q.d., 31 days. How it is done: PC-3 cells (1×10^7 cells) were injected subcutaneously into the flanks of 7-week-old male SCID mice and treated with vehicle or compound k (50 mg/kg) q.d. for 31 days. […] Tumors were excised from each mouse after a 31-day treatment. […] The length is represented by the scale bar as indicated.
The cells were incubated in lysis buffer for 10 min at 4° C., scraped off, incubated on ice for an additional 10 min and then centrifuged at 17,000 g for 30 min at 4° C. Protein samples were electrophoresed on SDS-PAGE gels, transferred to PVDF membranes and blocked with 5% fat-free milk in PBS for 30 min at room temperature. Immunoblotting was performed overnight with primary antibodies in PBS at 4° C., followed by incubation with HRP-conjugated secondary antibodies for 1 h at room temperature. Bound antibodies will be measured using an ECL reagent and exposed to a photographic film. In the immunoprecipitation assay, cell lysates were immunoprecipitated with 1 μg of antibody and A/G agarose beads overnight at 4° C. After washing the precipitated beads three times with 1 mL ice-cold cell lysis buffer, bound immune complexes were separated by 10% SDS-PAGE and analyzed with immunoblotting.
Tissue sections underwent dewaxing and rehydration. Antigen retrieval was performed by autoclaving the slides in Trilogy solution (Cell Marque, Hot Springs, AR) at 121° C. for 10 min. The slides were blocked with 3% H2O2 and 5% fetal bovine serum, incubated with primary antibodies at 4° C. overnight, and then treated with polymer-HRP reagent (Dako Cytomation, Glostrup, Denmark). activity Peroxidase was visualized using diamino-benzidine tetrahydrochloride solution (DAKO), and sections were counterstained with hematoxylin. Dark brown nuclear staining was defined as positive, no staining was defined as negative.

For a further data set, the system named is A549 cells. The data set can be described thus: Wound-healing migration assay. Format: cell-based, human. Particulars: compounds 2 μM, senexin A 5 μM, pirfenidone 1 mM; TGF-β1 10 ng/mL; 24 or 48 h. How it is done: A549 cells were incubated in six-well plates until reaching 90% confluency, scratched with a pipette tip, and immediately photographed (0 h). Cells were incubated with or without compound k (2 μM), senexin A (5 μM), or pirfenidone (1 mM) for 1 h, then treated with TGF-β1 (10 ng/mL) and allowed to migrate into the wound area for 24 or 48 h, and photographed. Cell migration into the wound was quantified using ImageJ software; the solid line indicates time zero. Quantitative assessment of the mean number of cells in the denuded zone is expressed as the mean±SEM from three independent experiments. **p<0.01 compared to the control group; ##p<0.01 and ###p<0.001 compared to TGF-β1-treated group.
Cells were seeded in six-well plates and cultured to 90% confluency, at which time the cellular monolayer was wounded with a sterile 10-μL pipette tip and washed with culture medium to remove detached cells. Cells were incubated in the presence or absence of test compounds for 24 h and photographed. The wound closure percentages were subsequently determined using ImageJ software (National Institutes of Health, USA).

Each structure is given as a SMILES string.

Here are results for one compound from patent US20250109120A1, “INDOLINE DERIVATIVES FOR TREATMENT AND/OR PREVENTION OF TUMOR OR CELL PROLIFERATIVE AND FIBROSIS DISEASES” (NATIONAL TAIWAN UNIVERSITY, priority 2023, published 2025).

Regarding `CNC(=O)c1cc(Oc2ccc(NS(=O)(=O)c3ccc4c(c3)C(=C(C)C)C(=O)N4)c(F)c2)ccn1` [Compound k, 4-(3-Fluoro-4-((2-oxo-3-(propan-2-ylidene)indoline)-5-sulfonamido)phenoxy)-N-methylpicolinamide], the “TGF-β1 effects on E-cadherin, N-cadherin, Snail, vimentin” value in the data set with prostate cancer cells (TGF-β1 10 ng/mL, 24 h) was “attenuated the effects of TGF-β1”. The “EMT protein inhibitory effects compared with senexin A” value in the data set on prostate cancer cells (senexin A 10 μM) was “more potent”. In the data set on PC-3 cells, the “binding of CDK8 and p-Smad3 (Thr179), tumor immunoprecipitation” value was “markedly inhibited”; the body weight changes entry was “no apparent body weight changes”; the “expression of EMT proteins, α-SMA, p-Smad3 (Thr179), active β-catenin, p-STAT1 Ser727 in tumor immunoblots” value was “markedly inhibited”; the “interaction of CDK8 and MED12, tumor immunoprecipitation” value was “did not affect”. In addition, in the data set on PC-3 cells, the “tumor margin, H&E staining” value was “distinct boundary”; the “vimentin, N-cadherin and Snail levels, IHC staining of tumors” value is given as “significantly decreased”. For the same compound, the “inhibition of cell migration” value in the data set on A549 cells is listed as “potent inhibition”.
